Experimental data as given in patent publication US9290451B2 (Hoffmann-La Roche Inc., priority 2011, dated 2016).
Read-outs that look alike come from different tables or passages of the source.

Legend:
human CB1 receptors = human CB1 receptors (Homo sapiens (Human), UniProt P21554); assay: cAMP assay, CHO cells expressing human CB1 receptors; assay type: cell-based
In short: (§1)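 Read-out is TR-FRET (excitation 355 nm, emission 730/645 nm) after cell lysis, with cAMP content taken from a standard curve and EC50 calculated. Cells were pretreated with 1 mM IBMX in Krebs Ringer bicarbonate buffer, then incubated with compounds for 30 min at 30 °C.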

human CB2 receptors = human CB2 receptors (Homo sapiens (Human), UniProt P34972); assay: cAMP assay, CHO cells expressing human CB2 receptors; assay type: cell-based
In short: as §1

[1] = CHO cells expressing human CB1, cAMP, read-out: human CB1 EC50
[2] = CHO cells expressing human CB2, cAMP, read-out: human CB2 EC50

Sequence of human CB1 receptors (P21554 whole entry): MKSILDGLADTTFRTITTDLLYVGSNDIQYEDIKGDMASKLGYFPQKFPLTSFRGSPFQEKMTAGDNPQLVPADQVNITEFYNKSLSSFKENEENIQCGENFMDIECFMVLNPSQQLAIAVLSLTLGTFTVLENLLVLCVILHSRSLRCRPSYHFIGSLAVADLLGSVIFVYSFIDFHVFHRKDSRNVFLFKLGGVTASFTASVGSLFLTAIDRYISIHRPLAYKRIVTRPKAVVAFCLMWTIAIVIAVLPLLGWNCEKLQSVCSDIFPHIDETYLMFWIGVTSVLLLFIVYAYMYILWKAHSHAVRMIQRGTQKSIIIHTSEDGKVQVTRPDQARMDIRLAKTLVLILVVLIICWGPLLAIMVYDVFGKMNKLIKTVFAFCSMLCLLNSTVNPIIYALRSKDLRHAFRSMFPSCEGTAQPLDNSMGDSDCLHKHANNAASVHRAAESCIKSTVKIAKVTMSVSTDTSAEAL
Sequence of human CB2 receptors (P34972 whole entry): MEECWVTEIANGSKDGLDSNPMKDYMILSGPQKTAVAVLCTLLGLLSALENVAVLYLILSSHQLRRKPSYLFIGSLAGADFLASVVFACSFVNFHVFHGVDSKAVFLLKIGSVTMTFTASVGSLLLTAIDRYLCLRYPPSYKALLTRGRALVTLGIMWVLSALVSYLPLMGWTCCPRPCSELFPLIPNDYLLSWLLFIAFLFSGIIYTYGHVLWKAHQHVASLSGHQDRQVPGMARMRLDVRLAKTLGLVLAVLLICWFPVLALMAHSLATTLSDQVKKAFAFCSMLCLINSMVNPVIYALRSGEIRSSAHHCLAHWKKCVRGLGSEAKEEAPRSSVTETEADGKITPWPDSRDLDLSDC

Molecule `CC(C)CC(C)(CO)NC(=O)c1ccc(N2CC(F)(F)C2)c(OCC2CC2)n1` (stereo not shown) [Example 273, 6-Cyclopropylmethoxy-5-(3,3-difluoro-azetidin-1-yl)-pyridine-2-carboxylic acid (1-hydroxymethyl-1,3-dimethyl-butyl)-amide] has an EC50 (human CB1 receptors) of 1250 nM and an EC50 (human CB2 receptors) of 5.4 nM.

For `Cc1csc(C(C)(C)NC(=O)c2ccc(C3CC3)c(OCC3CC3)n2)n1` [Example 294, 5-Cyclopropyl-6-cyclopropylmethoxy-pyridine-2-carboxylic acid [1-methyl-1-(4-methyl-thiazol-2-yl)-ethyl]-amide], the EC50 (human CB1 receptors; [1]) was > 10000 nM and the EC50 (human CB2 receptors; [2]) was 112 nM.

`CCC(CC)(CO)NC(=O)c1cccc(-c2cccc(Cl)c2)n1` [Example 29, 6-(3-Chloro-phenyl)-pyridine-2-carboxylic acid (1-ethyl-1-hydroxymethyl-propyl)-amide] was tested, and the EC50 (human CB1 receptors; [1]) was > 10000 nM and the EC50 (human CB2 receptors; [2]) was 324 nM.

Work on `CCC(CC)(NC(=O)c1ccc(C2CC2)c(OCC2CCOCC2)n1)C(=O)O` [Example 337, 2-{[5-Cyclopropyl-6-(tetrahydro-pyran-4-ylmethoxy)-pyridine-2-carbonyl]-amino}-2-ethyl-butyric acid] yielded an EC50 (human CB1 receptors; [1]) of 475 nM and an EC50 (human CB2 receptors; [2]) of 34.5 nM.

With `CC(C)(C)C(NC(=O)c1ccc(C2CC2)c(OCC(F)(F)F)n1)c1nccs1` (stereo not shown) [Example 306, 5-Cyclopropyl-6-(2,2,2-trifluoro-ethoxy)-pyridine-2-carboxylic acid (2,2-dimethyl-1-thiazol-2-yl-propyl)-amide] the EC50 (human CB1 receptors; [1]) was > 10000 nM and the EC50 (human CB2 receptors; [2]) was 138 nM.

In the case of `Cc1nc(C(C)(C)NC(=O)c2ccc(C3CC3)c(OCC3CC3)n2)no1` [Example 45, 5-Cyclopropyl-6-cyclopropylmethoxy-pyridine-2-carboxylic acid [1-methyl-1-(5-methyl-[1,2,4]oxadiazol-3-yl)-ethyl]-amide], the EC50 (human CB1 receptors; [1]) is reported as 1060 nM and the EC50 (human CB2 receptors; [2]) is reported as 87.1 nM.

Work on `CC(C)C[C@H](NC(=O)c1ccc(N2CCCC2C)c(OCC2CC2)n1)C(N)=O` (stereo partly drawn) [Example 32, 6-Cyclopropylmethoxy-5-(2-methyl-pyrrolidin-1-yl)-pyridine-2-carboxylic acid ((S)-1-carbamoyl-3-methyl-butyl)-amide] yielded an EC50 (human CB1 receptors; [1]) of 1390 nM and an EC50 (human CB2 receptors; [2]) of 1.55 nM.

For `CC1(C)CCc2ccc(C(=O)NC(C)(C)CO)nc2C1` [Example 145, N-(1-hydroxy-2-methylpropan-2-yl)-7,7-dimethyl-5,6,7,8-tetrahydroquinoline-2-carboxamide], the EC50 (human CB1 receptors; [1]) was > 10000 nM and the EC50 (human CB2 receptors; [2]) was 289 nM.

`CCC(CC)(NC(=O)c1ccc(C(F)(F)F)c(OCC2CC2)n1)C(=O)N1CC(F)(F)C1` [Example 316, 6-Cyclopropylmethoxy-5-trifluoromethyl-pyridine-2-carboxylic acid [1-(3,3-difluoro-azetidine-1-carbonyl)-1-ethyl-propyl]-amide] was tested, and the EC50 (human CB1 receptors; [1]) was > 10000 nM and the EC50 (human CB2 receptors; [2]) was 3.1 nM.

With `Cc1ccc(C(=O)N2CCCCC2)nc1S(=O)(=O)N1CCCCC1` [Example 25, [5-Methyl-6-(piperidine-1-sulfonyl)-pyridin-2-yl]-piperidin-1-yl-methanone] the EC50 (human CB1 receptors; [1]) was > 10000 nM and the EC50 (human CB2 receptors; [2]) was 291 nM.

For `Cc1nc(C(C)(C)NC(=O)c2ccc(C(F)(F)F)c(OCC3CC3)n2)no1` [Example 120, 6-Cyclopropylmethoxy-5-trifluoromethyl-pyridine-2-carboxylic acid [1-methyl-1-(5-methyl-[1,2,4]oxadiazol-3-yl)-ethyl]-amide], the EC50 (human CB1 receptors; [1]) was > 10000 nM and the EC50 (human CB2 receptors; [2]) was 259 nM.

For `CC(C)(NC(=O)c1ccc(C(F)(F)F)c(OCC2CC2)n1)c1ncco1` [Example 129, 6-Cyclopropylmethoxy-5-trifluoromethyl-pyridine-2-carboxylic acid (1-methyl-1-oxazol-2-yl-ethyl)-amide], the EC50 (human CB1 receptors; [1]) was > 10000 nM and the EC50 (human CB2 receptors; [2]) was 184 nM.

With `O=C(NN1CCCCC1)c1cccc(C2CCOCC2)n1` [Example 37, 6-(Tetrahydro-pyran-4-yl)-pyridine-2-carboxylic acid piperidin-1-ylamide] the EC50 (human CB1 receptors; [1]) was > 10000 nM and the EC50 (human CB2 receptors; [2]) was 625 nM.

For `CC(C)(C)NC(=O)c1ccc(N2CC(F)(F)C2)c(OCC2CC2)n1` [Example 359, 6-Cyclopropylmethoxy-5-(3,3-difluoro-azetidin-1-yl)-pyridine-2-carboxylic acid tert-butylamide], the EC50 (human CB1 receptors; [1]) was > 10000 nM and the EC50 (human CB2 receptors; [2]) was 6.9 nM.

For `Cc1nc(C(NC(=O)c2ccc(C3CC3)c(OCC3CCOCC3)n2)C2CC2)no1` (stereo not shown) [Example 219, 5-Cyclopropyl-6-(tetrahydro-pyran-4-ylmethoxy)-pyridine-2-carboxylic acid [cyclopropyl-(5-methyl-[1,2,4]oxadiazol-3-yl)-methyl]-amide], the EC50 (human CB1 receptors; [1]) was 2140 nM and the EC50 (human CB2 receptors; [2]) was 10.8 nM.

For `O=C(Nc1ccccc1)c1cccc(-c2cccc(Cl)c2)n1` [Example 19, 6-(3-Chloro-phenyl)-pyridine-2-carboxylic acid phenylamide], the EC50 (human CB1 receptors; [1]) was > 10000 nM and the EC50 (human CB2 receptors; [2]) was 415 nM.

With `CNC(=O)[C@H](CC(C)C)NC(=O)c1cccc(-c2cccc(C(F)(F)F)c2)n1` [Example 211, (S)-N-(4-Methyl-1-(methylamino)-1-oxopentan-2-yl)-6-(3-(trifluoromethyl)phenyl)picolinamide] the EC50 (human CB1 receptors; [1]) was > 10000 nM and the EC50 (human CB2 receptors; [2]) was 57.1 nM.

With `Cc1nc([C@H](CC2CC2)NC(=O)c2ccc(C3CC3)c(S(=O)(=O)CC(C)C)n2)no1` [Example 352, 5-Cyclopropyl-6-(2-methyl-propane-1-sulfonyl)-pyridine-2-carboxylic acid [(S)-2-cyclopropyl-1-(5-methyl-[1,2,4]oxadiazol-3-yl)-ethyl]-amide] the EC50 (human CB1 receptors; [1]) was > 10000 nM and the EC50 (human CB2 receptors; [2]) was 189 nM.

With `CNC(=O)[C@@H](NC(=O)c1cccc(-c2cccc(F)c2)n1)C(C)(C)C` [Example 213, (S)-N-(3,3-Dimethyl-1-(methylamino)-1-oxobutan-2-yl)-6-(3-fluorophenyl)picolinamide] the EC50 (human CB1 receptors; [1]) was 361 nM and the EC50 (human CB2 receptors; [2]) was 12.8 nM.

Molecule `CNC(=O)[C@H](CC(C)(C)C)NC(=O)c1ccc(C2CC2)c(OCC(F)(F)C(F)(F)F)n1` [Example 299, 5-Cyclopropyl-6-(2,2,3,3,3-pentafluoro-propoxy)-pyridine-2-carboxylic acid ((S)-3,3-dimethyl-1-methylcarbamoyl-butyl)-amide] has an EC50 (human CB1 receptors; [1]) of 603 nM and an EC50 (human CB2 receptors; [2]) of 27.6 nM.

`Cc1nc(C(C)(C)NC(=O)c2ccc(N3CCC34COC4)c(OCC3CC3)n2)no1` [Example 235, 6-Cyclopropylmethoxy-5-(6-oxa-1-aza-spiro[3.3]hept-1-yl)-pyridine-2-carboxylic acid [1-methyl-1-(5-methyl-[1,2,4]oxadiazol-3-yl)-ethyl]-amide] was tested, and the EC50 (human CB1 receptors; [1]) was > 10000 nM and the EC50 (human CB2 receptors; [2]) was 41.3 nM.

In the case of `CNC(=O)[C@H](CC(C)(C)C)NC(=O)c1ccc(N2CC(F)(F)C2)c(OCC2CC2)n1` [Example 209, (S)-6-(Cyclopropylmethoxy)-5-(3,3-difluoroazetidin-1-yl)-N-(4,4-dimethyl-1-(methylamino)-1-oxopentan-2-yl)picolinamide], the EC50 (human CB1 receptors; [1]) is reported as > 10000 nM and the EC50 (human CB2 receptors; [2]) is reported as 2.5 nM.

`CC(C)C[C@H](NC(=O)c1cccc(-c2cccc(Cl)c2)n1)c1nccs1` [Example 56, 6-(3-Chloro-phenyl)-pyridine-2-carboxylic acid ((S)-3-methyl-1-thiazol-2-yl-butyl)-amide] was tested, and the EC50 (human CB1 receptors; [1]) was > 10000 nM and the EC50 (human CB2 receptors; [2]) was 173 nM.

For `CCC(CC)(NC(=O)c1ccc(C2CC2)c(OCC2CC2)n1)C(=O)N1CC(F)(F)C1` [Example 287, 5-Cyclopropyl-6-cyclopropylmethoxy-pyridine-2-carboxylic acid [1-(3,3-difluoro-azetidine-1-carbonyl)-1-ethyl-propyl]-amide], the EC50 (human CB1 receptors; [1]) was > 10000 nM and the EC50 (human CB2 receptors; [2]) was 3.6 nM.

`Cc1ccc(C(=O)N[C@@H](CC2CC2)C(N)=O)nc1OCC1CC1` [Example 130, 6-Cyclopropylmethoxy-5-methyl-pyridine-2-carboxylic acid ((S)-1-carbamoyl-2-cyclopropyl-ethyl)-amide] was tested, and the EC50 (human CB1 receptors; [1]) was > 10000 nM and the EC50 (human CB2 receptors; [2]) was 50 nM.

With `CCC(CC)(NC(=O)c1ccc(C2CCOCC2)c(OCC2CC2)n1)C(=O)NC` [Example 85, 6-Cyclopropylmethoxy-5-(tetrahydro-pyran-4-yl)-pyridine-2-carboxylic acid (1-ethyl-1-methylcarbamoyl-propyl)-amide] the EC50 (human CB1 receptors; [1]) was > 10000 nM and the EC50 (human CB2 receptors; [2]) was 186 nM.

For `O=C(NC1CCCOC1)c1cccc(-c2cccc(Cl)c2)n1` (stereo not shown) [Example 30, 6-(3-Chloro-phenyl)-pyridine-2-carboxylic acid (tetrahydro-pyran-3-yl)-amide], the EC50 (human CB1 receptors; [1]) was > 10000 nM and the EC50 (human CB2 receptors; [2]) was 658 nM.

In the case of `CC(C)C[C@@H](CO)NC(=O)c1ccc(N2CCCC2)c(OCC2CC2)n1` [Example 14, 6-Cyclopropylmethoxy-5-pyrrolidin-1-yl-pyridine-2-carboxylic acid ((S)-1-hydroxymethyl-3-methyl-butyl)-amide], the EC50 (human CB1 receptors; [1]) is reported as > 10000 nM and the EC50 (human CB2 receptors; [2]) is reported as 3 nM.

With `NC(=O)[C@@H](NC(=O)c1ccc(C2CC2)c(OCC(F)(F)F)n1)c1ccccc1` [Example 301, 5-Cyclopropyl-6-(2,2,2-trifluoro-ethoxy)-pyridine-2-carboxylic acid ((S)-carbamoyl-phenyl-methyl)-amide] the EC50 (human CB1 receptors; [1]) was > 10000 nM and the EC50 (human CB2 receptors; [2]) was 130 nM.

In the case of `Cc1nc([C@H](CC2CC2)NC(=O)c2ccc(C)c(OCC3CC3)n2)no1` [Example 57, 6-Cyclopropylmethoxy-5-methyl-pyridine-2-carboxylic acid [(S)-2-cyclopropyl-1-(5-methyl-[1,2,4]oxadiazol-3-yl)-ethyl]-amide], the EC50 (human CB1 receptors; [1]) is reported as > 10000 nM and the EC50 (human CB2 receptors; [2]) is reported as 319 nM.

With `NC(=O)C1(NC(=O)c2ccc(C3CC3)c(OCC3CC3)n2)CCOCC1` [Example 180, 5-Cyclopropyl-6-cyclopropylmethoxy-pyridine-2-carboxylic acid (4-carbamoyl-tetrahydro-pyran-4-yl)-amide] the EC50 (human CB1 receptors; [1]) was > 10000 nM and the EC50 (human CB2 receptors; [2]) was 423 nM.

`CC(C)(NC(=O)c1ccc(N2CCCC2=O)c(OCC2CC2)n1)c1ncco1` [Example 61, 6-Cyclopropylmethoxy-5-(2-oxo-pyrrolidin-1-yl)-pyridine-2-carboxylic acid (1-methyl-1-oxazol-2-yl-ethyl)-amide] was tested, and the EC50 (human CB1 receptors; [1]) was > 10000 nM and the EC50 (human CB2 receptors; [2]) was 1480 nM.
